Measurements: patent publication US12630534B2 (TAKEDA PHARMACEUTICAL COMPANY LIMITED, priority 2020, dated 2026)

Biological target: T1, human GPR139 (Homo sapiens, UniProt Q6DWJ6)
T1 construct: expressed in transfected cells; host or cells: CHO-TREx (Life Technologies) cells, expression induced with doxycycline
T1 sequence (Q6DWJ6 1-353): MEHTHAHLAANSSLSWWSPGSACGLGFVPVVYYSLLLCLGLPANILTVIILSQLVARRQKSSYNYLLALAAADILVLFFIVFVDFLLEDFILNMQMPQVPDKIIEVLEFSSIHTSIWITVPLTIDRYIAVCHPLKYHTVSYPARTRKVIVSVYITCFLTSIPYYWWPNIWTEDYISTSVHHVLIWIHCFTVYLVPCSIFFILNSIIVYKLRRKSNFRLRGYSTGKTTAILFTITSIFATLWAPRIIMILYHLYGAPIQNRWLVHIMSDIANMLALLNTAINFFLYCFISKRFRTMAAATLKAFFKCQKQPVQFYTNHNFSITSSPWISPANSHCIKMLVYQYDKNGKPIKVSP
Assay: Inhibition rate of the amount of IP1 in GPR139-expressed CHO cells (inverse agonist assay, Test Example 2)
Assay type: cell-based
Details: CHO, relative value, inhibition rate of Example Compound 2 in Test Example 1 defined as 100%
Method in brief: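 IP1 accumulation read by IP-One HTRF after 40 min compound exposure at 37° C in stimulation buffer, 2000 cells/well, GPR139 expression induced the day before with doxycycline. Results given as relative inhibition rate, normalised to a reference compound set at […].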

Structure (SMILES)	inhibition at 30 µM
CCn1cc(Cn2cnn(-c3cc(OCC4CC(F)(F)C4)cc(C(F)(F)F)c3F)c2=O)cn1 [Example 151, 2-{5-[(3,3-difluorocyclobutyl)methoxy]-2-fluoro-3-(trifluoromethyl)phenyl}-4-[(1-ethyl-1H-pyrazol-4-yl)methyl]-2,4-dihydro-3H-1,2,4-triazol-3-one]	98%
CCn1cc(Cn2c(C)cn(-c3cc(N(C)C4CCOCC4)cc(C(F)(F)F)c3Cl)c2=O)cn1 [Example 58, 1-{2-chloro-5-[methyl(oxan-4-yl)amino]-3-(trifluoromethyl)phenyl}-3-[(1-ethyl-1H-pyrazol-4-yl)methyl]-4-methyl-1,3-dihydro-2H-imidazol-2-one]	98%
CCn1cc(Cn2c(C)cn(-c3cc(C(F)(F)F)nn3CCC3CCC3)c2=O)cn1 [Example 99, 1-[1-(2-Cyclobutylethyl)-3-(trifluoromethyl)-1H-pyrazole-5-yl]-3-[(I-ethyl-1H-pyrazole-4-yl)methyl]-4-methyl-1,3<dihydro-2H-imidazole-2-one]	101%
CCn1cc(Cn2cc(C)n(-c3cc(C4CCC(F)(F)CC4)cc(C(F)(F)F)c3)c2=O)cn1 [Example 33, 3-[3-(4,4-difluorocyclohexyl)-5-(trifluoromethyl)phenyl]-1-[(1-ethyl-1H-pyrazol-4-yl)methyl]-4-methyl-1,3-dihydro-2H-imidazol-2-one]	100%
CCn1cc(Cn2cc(C)n(-c3nc(N4CCO[C@H](C)C4)cc(C(F)(F)F)n3)c2=O)cn1 [Example 124, 1-[(1-ethyl-1H-pyrazol-4-yl)methyl]-4-methyl-3-{4-[(2R)-2-methylmorpholin-4-yl]-6-(trifluoromethyl)pyrimidin-2-yl}-1,3-dihydro-2H-imidazol-2-one]	103%
Cc1nn(-c2cc(N3CCC(F)(F)C3)cc(C(F)(F)F)c2F)c(=O)n1Cc1cnn(C(C)C)c1 [Example 94, 2-[5-(3,3-difluoropyrrolidin-1-yl)-2-fluoro-3-(trifluoromethyl)phenyl]-5-methyl-4-{[1-(propan-2-yl)-1H-pyrazol-4-yl]methyl}-2,4-dihydro-3H-1,2,4-triazol-3-one]	99%
CCn1cc(Cn2c(C)cn(-c3nc(N(C)C4CCOCC4)cc(C(F)(F)F)c3Cl)c2=O)cn1 [Example 83, 1-{3-chloro-6-[methyl(oxan-4-yl)amino]-4-(trifluoromethyl)pyridin-2-yl}-3-[(1-ethyl-1H-pyrazol-4-yl)methyl]-4-methyl-1,3-dihydro-2H-imidazol-2-one]	99%
CCc1cn(Cc2cnn(CC)c2)c(=O)n1-c1cc(C(F)(F)F)cc(N2CCO[C@H](C)C2)n1 [Example 157, 4-ethyl-1-[(1-ethyl-1H-pyrazol-4-yl)methyl]-3-{6-[(2R)-2-methylmorpholin-4-yl]-4-(trifluoromethyl)pyridin-2-yl}-1,3-dihydro-2H-imidazol-2-one]	101%
CCn1cc(Cn2ccn(-c3cc(N4CCOC(C)(C)C4)cc(Br)c3F)c2=O)cn1 [Example 146, 1-[3-bromo-5-(2,2-dimethylmorpholin-4-yl)-2-fluorophenyl]-3-[(1-ethyl-1H-pyrazol-4-yl)methyl]-1,3-dihydro-2H-imidazol-2-one]	103%
CCn1cc(Cn2c(C)cn(-c3nc(N4CCO[C@H](C)C4)cc(C(F)(F)F)c3Cl)c2=O)cn1 [Example 84, 1-{3-chloro-6-[(2R)-2-methylmorpholin-4-yl]-4-(trifluoromethyl)pyridin-2-yl}-3-[(1-ethyl-1H-pyrazol-4-yl)methyl]-4-methyl-1,3-dihydro-2H-imidazol-2-one]	99%
CCn1cc(Cn2ccn(-c3cc(OCC4CC(F)(F)C4)cc(C(F)F)c3Cl)c2=O)cn1 [Example 69, 1-{2-chloro-5-[(3,3-difluorocyclobutyl)methoxy]-3-(difluoromethyl)phenyl}-3-[(1-ethyl-1H-pyrazol-4-yl)methyl]-1,3-dihydro-2H-imidazol-2-one]	95%
